Key:
Human 5-lipoxygenase = biological target: T1, Human 5-lipoxygenase (Homo sapiens, UniProt P09917); test: Activity of compounds against 5-LO enzyme (LTB4 measurement and/or fluorescence method); assay type: biochemical; conditions: for inhibition at 10 µM: 5-LO, single concentration of 10 uM in duplicate; for IC50: 6 or 11 point dose response in duplicate
T1 construct: purchased Cayman 60402; host or cells: insect cells
T1 sequence (P09917 1-674): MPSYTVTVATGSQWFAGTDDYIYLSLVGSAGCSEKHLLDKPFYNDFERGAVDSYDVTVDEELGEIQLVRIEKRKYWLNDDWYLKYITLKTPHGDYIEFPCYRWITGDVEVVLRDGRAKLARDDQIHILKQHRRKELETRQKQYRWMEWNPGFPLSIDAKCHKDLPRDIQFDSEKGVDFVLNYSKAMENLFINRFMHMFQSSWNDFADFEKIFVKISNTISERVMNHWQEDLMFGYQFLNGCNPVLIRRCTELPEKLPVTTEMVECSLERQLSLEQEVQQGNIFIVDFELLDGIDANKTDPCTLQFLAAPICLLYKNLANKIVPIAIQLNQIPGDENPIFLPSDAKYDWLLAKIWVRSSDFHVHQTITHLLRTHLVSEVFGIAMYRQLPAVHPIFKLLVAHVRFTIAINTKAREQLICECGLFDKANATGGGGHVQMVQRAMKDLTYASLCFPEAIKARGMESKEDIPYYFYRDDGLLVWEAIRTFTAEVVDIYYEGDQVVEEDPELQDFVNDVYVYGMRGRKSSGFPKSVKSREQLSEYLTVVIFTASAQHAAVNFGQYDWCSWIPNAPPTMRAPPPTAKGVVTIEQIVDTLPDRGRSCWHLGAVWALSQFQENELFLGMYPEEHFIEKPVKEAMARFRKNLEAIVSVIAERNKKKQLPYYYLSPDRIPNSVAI
Procedure, shortened: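 Two read-outs: LTB4 measured by EIA and/or LC/MS/MS with LTB4-d4 standard after 15 min RT compound preincubation with insect-cell 5-LO and a 5 min 37 °C reaction on 3 uM arachidonic acid (0.1 mM ATP, pH 7.4). The room-temperature fluorescence format used 20 uM H2DCFDA, 100 uM ATP, 3 uM arachidonic acid, 5 min; IC50 from 6/11-point curves.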

Row | Compound | melting point | inhibition at 10 µM (Human 5-lipoxygenase) | IC50 (Human 5-lipoxygenase)
1 | CCc1nc2cc(Cl)ccn2c1C(=O)NCc1nc2ccc(-c3ccc(OC(F)(F)F)cc3)cc2o1 [compound 374, 7-chloro-2-ethyl-N-((6-(4-(trifluoromethoxy)phenyl)benzo[d]oxazol-2-yl)methyl)imidazo[1,2-a]pyridine-3-carboxamide] | > 220 °C | < 40% | –
2 | CCc1nc2cc(Cl)ccn2c1C(=O)NCc1ccc(N2CCC(CO)CC2)cc1 [compound 212, 7-Chloro-2-ethyl-N-(4-(4-(hydroxymethyl)piperidin-1-yl)benzyl)imidazo[1,2-a]pyridine-3-carboxamide] | 179.8 °C | < 40% | –
3 | CCc1nc2ccc(Cl)cn2c1COc1ccc(OC(F)(F)F)cc1 [compound 143, 6-Chloro-2-ethyl-3-((4-(trifluoromethoxy)phenoxy)methyl)imidazo[1,2-a]pyridine] | 127 to 128 °C | > 69% | –
4 | CCc1nc2ccc(Cl)cn2c1C(=O)NCc1cccc(OCc2ccc(OC(F)(F)F)cc2)c1 [compound 353, 6-chloro-2-ethyl-N-(3-((4-(trifluoromethoxy)benzyl)oxy)benzyl)imidazo[1,2-a]pyridine-3-carboxamide] | > 142.7 °C (dec.) | < 40% | –
5 | CCc1nc2ccc(Cl)cn2c1C(=O)NCc1ccc(N2CCC(C(N)=O)CC2)cc1 [compound 291, N-(4-(4-Carbamoylpiperidin-1-yl)benzyl)-6-chloro-2-ethylimidazo[1,2-a]pyridine-3-carboxamide] | 257.5 °C | < 40% | –
6 | CCc1nc2cc(Cl)ccn2c1C(=O)NCc1ccc(Oc2ccc(Cl)cc2)cc1 [compound 161, 7-Chloro-N-(4-(4-chlorophenoxy)benzyl)-2-ethylimidazo[1,2-a]pyridine-3-carboxamide] | 167.1 to 167.9 °C | > 69% | 1000 to 20000 nM
7 | CCc1nc2ccc(Cl)cn2c1C(=O)NCc1cccc(N2CCC(Oc3ccc(OC(F)(F)F)cc3)CC2)c1 [compound 360, 6-chloro-2-ethyl-N-(3-(4-(4-(trifluoromethoxy)phenoxy)piperidin-1-yl)benzyl)imidazo[1,2-a]pyridine-3-carboxamide] | 126.3 to 127.2 °C | 40 to 69% | –
8 | CCc1nc2ccc(Cl)cn2c1C(=O)NCc1ccc(N2CCC(COc3ccc(F)cc3)CC2)cc1 [compound 244, 6-Chloro-2-ethyl-N-(4-(4-((4-fluorophenoxy)methyl)piperidin-1-yl)benzyl)imidazo[1,2-a]pyridine-3-carboxamide] | 171 °C | 40 to 69% | –
9 | CCc1nc2ncccn2c1CNc1ccc(N2CCN(c3ccc(F)cc3)CC2)cc1 [compound 395, N-((2-Ethylimidazo[1,2-a]pyrimidin-3-yl)methyl)-4-(4-(4-fluorophenyl)piperazin-1-yl)aniline] | 210.7 °C | – | < 1000 nM
10 | CCc1nc2cc(Cl)ccn2c1C(=O)NCc1ccc(N2CCC(C(F)(F)F)CC2)cc1 [compound 234, 7-Chloro-2-ethyl-N-(4-(4-(trifluoromethyl)piperidin-1-yl)benzyl)imidazo[1,2-a]pyridine-3-carboxamide] | 209.4 °C | < 40% | –
11 | CCCC(=O)NCc1ccc(N2CCN(c3ccc(CNC(=O)c4c(CC)nc5cc(Cl)ccn45)cc3)CC2)cc1 [compound 125, N-(4-(4-(4-(Butyramidomethyl)phenyl)piperazin-1-yl)benzyl)-7-chloro-2-ethylimidazo[1,2-a]pyridine-3-carboxamide] | 238 to 239.2 °C | 40 to 69% | –
12 | CCc1nc2cc(Cl)ccn2c1C(=O)NCc1ccc(N2CCN(Cc3ccc(F)cc3)CC2)cc1 [compound 126, 7-Chloro-2-ethyl-N-(4-(4-(4-fluorobenzyl)piperazin-1-yl)benzyl)imidazo[1,2-a]pyridine-3-carboxamide] | 141 to 142 °C | > 69% | 1000 to 20000 nM
13 | CCc1nc2ccc(Cl)cn2c1C(=O)NCc1ccc(C2CCOCC2)cc1 [compound 363, 6-chloro-2-ethyl-N-(4-(tetrahydro-2H-pyran-4-yl)benzyl)imidazo[1,2-a]pyridine-3-carboxamide] | > 195.5 °C (dec.) | < 40% | –
14 | CCc1nc2cc(Cl)ccn2c1C(=O)NCc1ccc(N2CCC(c3ccccc3)CC2)cc1 [compound 209, 7-Chloro-2-ethyl-N-(4-(4-phenylpiperidin-1-yl)benzyl)imidazo[1,2-a]pyridine-3-carboxamide] | 164.5 °C | > 69% | –
15 | CCc1nc2ccc(Cl)cn2c1C(=O)NCc1cccc(N2CCC(c3ccc(OC(F)(F)F)cc3)CC2)c1 [compound 354, 6-chloro-2-ethyl-N-(3-(4-(4-(trifluoromethoxy)phenyl)piperidin-1-yl)benzyl)imidazo[1,2-a]pyridine-3-carboxamide] | 135.5 to 136.4 °C | < 40% | –
16 | CCc1nc2cc(Cl)ccn2c1C(=O)NCc1ccc(Oc2ccc(F)cc2)nc1 [compound 188, 7-Chloro-2-ethyl-N-((6-(4-fluorophenoxy)pyridin-3-yl)methyl)imidazo[1,2-a]pyridine-3-carboxamide] | 167 to 167.6 °C | 40 to 69% | –
17 | Cc1nc2cccc(C)n2c1CNc1ccc(N2CCC(c3ccc(F)cc3)CC2)cc1 [compound 401, N-((2,5-dimethylimidazo[1,2-a]pyridin-3-yl)methyl)-4-(4-(4-fluorophenyl)piperidin-1-yl)aniline] | 228.8 °C | – | < 1000 nM
18 | CCc1nc2ccc(Cl)cn2c1-c1nc(Cc2ccc(Oc3ccc(F)cc3)cc2)no1 [compound 289, 5-(6-Chloro-2-ethylimidazo[1,2-a]pyridin-3-yl)-3-(4-(4-fluorophenoxy)benzyl)-1,2,4-oxadiazole] | 129.9 °C | < 40% | –
19 | CCc1nc2ccc(Cl)cn2c1C(=O)NC1CCN(Cc2ccc(OC(F)(F)F)cc2)CC1 [compound 309, 6-Chloro-2-ethyl-N-(1-(4-(trifluoromethoxy)benzyl)piperidin-4-yl)imidazo[1,2-a]pyridine-3-carboxamide] | 157 to 158 °C | 40 to 69% | 1000 to 20000 nM
20 | CCc1nc2cc(N3CCN(C)CC3)ccn2c1C(=O)NCc1ccc(N2CCOCC2)cc1 [compound 254, 2-Ethyl-7-(4-methylpiperazin-1-yl)-N-(4-morpholinobenzyl)imidazo[1,2-a]pyridine-3-carboxamide] | 204.8 °C | < 40% | –
21 | CCc1nc2ccc(Cl)cn2c1C(=O)NCCc1ccc(OC)cc1 [compound 136, 6-Chloro-2-ethyl-N-(4-methoxyphenethyl)imidazo[1,2-a]pyridine-3-carboxamide] | 129 to 130 °C | < 40% | –
22 | CCc1nc2cc(Cl)ccn2c1C(=O)NCc1ccc(Oc2ccc(OC(F)(F)F)cc2)cc1 [compound 128, 7-Chloro-2-ethyl-N-(4-(4-(trifluoromethoxy)phenoxy)benzyl)imidazo[1,2-a]pyridine-3-carboxamide] | 141 to 142 °C | > 69% | < 1000 nM
23 | CCc1nc2ccc(Cl)cn2c1C(=O)NCc1nc2ccc(Cl)cc2o1 [compound 369, 6-chloro-N-((6-chlorobenzo[d]oxazol-2-yl)methyl)-2-ethylimidazo[1,2-a]pyridine-3-carboxamide] | 201.1 to 201.8 °C | < 40% | –
24 | CCc1nc2ccc(Cl)cn2c1C(=O)NCc1cc2cc(Cl)ccc2o1 [compound 366, 6-chloro-N-((5-chlorobenzofuran-2-yl)methyl)-2-ethylimidazo[1,2-a]pyridine-3-carboxamide] | 223.5 to 225.6 °C | < 40% | –
25 | CCc1nc2cc(Cl)ccn2c1C(=O)NCc1ccc(N2CCC(Oc3ccc(F)cc3)CC2)cc1 [compound 70, 7-Chloro-2-ethyl-N-(4-(4-(4-fluorophenoxy)piperidin-1-yl)benzyl)imidazo[1,2-a]pyridine-3-carboxamide] | 138 to 139 °C | > 69% | 1000 to 20000 nM
26 | CCc1nc2cc(Cl)ccn2c1C(=O)NCc1ccc(N2CCC(COC)CC2)cc1 [compound 248, 7-Chloro-2-ethyl-N-(4-(4-(methoxymethyl)piperidin-1-yl)benzyl)imidazo[1,2-a]pyridine-3-carboxamide] | 172.5 °C | < 40% | –
27 | CCc1nc2cc(Cl)ccn2c1C(=O)NCc1ccc(N2CCC3CCCCC3C2)cc1 (centres unmarked) [compound 222, 7-Chloro-2-ethyl-N-(4-(octahydroisoquinolin-2(1H)-yl)benzyl)imidazo[1,2-a]pyridine-3-carboxamide] | 174.2 °C | < 40% | –

From US9029389B2 (Institut Pasteur Korea, priority 2011, dated 2015)
